The source of these data is patent publication US9938261B2, “Heterocyclic compounds and methods of use thereof” (AMBIT BIOSCIENCES CORPORATION, priority 2011, dated 2018).

What is called IC50 is the concentration needed to halve the response being measured. For orientation: Kd means a measure of binding affinity in units of concentration. Higher therefore signals lower affinity.

One test has as its target CSF1R (Homo sapiens, UniProt P07333). Description: HEK293 CSF1R phosphorylation MSD assay. Type of test: cell-based. Set-up: expressed in transfected cells; host or cells: HEK293. Particulars: HEK293 cells, M-CSF stimulated CSF1R phosphorylation, MSD; read-out: HEK293 pCSF1R M-CSF MSD:IC50. In outline:
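HEK293 cells expressing CSF1R-FKBP were pretreated 2 h at 37° C with 9 half-log concentrations of compound (0.5% DMSO final), then stimulated 5 min with 50 ng/mL human M-CSF. Lysates captured on biotin-FK506 plates; phosphotyrosine detected by MSD electrochemiluminescence. IC50 versus DMSO, averaged from duplicate plates.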

A further test has as its target T1, FLT3 (Homo sapiens, UniProt P36888).
T1 construct: made in house
T1 sequence (P36888 27-993): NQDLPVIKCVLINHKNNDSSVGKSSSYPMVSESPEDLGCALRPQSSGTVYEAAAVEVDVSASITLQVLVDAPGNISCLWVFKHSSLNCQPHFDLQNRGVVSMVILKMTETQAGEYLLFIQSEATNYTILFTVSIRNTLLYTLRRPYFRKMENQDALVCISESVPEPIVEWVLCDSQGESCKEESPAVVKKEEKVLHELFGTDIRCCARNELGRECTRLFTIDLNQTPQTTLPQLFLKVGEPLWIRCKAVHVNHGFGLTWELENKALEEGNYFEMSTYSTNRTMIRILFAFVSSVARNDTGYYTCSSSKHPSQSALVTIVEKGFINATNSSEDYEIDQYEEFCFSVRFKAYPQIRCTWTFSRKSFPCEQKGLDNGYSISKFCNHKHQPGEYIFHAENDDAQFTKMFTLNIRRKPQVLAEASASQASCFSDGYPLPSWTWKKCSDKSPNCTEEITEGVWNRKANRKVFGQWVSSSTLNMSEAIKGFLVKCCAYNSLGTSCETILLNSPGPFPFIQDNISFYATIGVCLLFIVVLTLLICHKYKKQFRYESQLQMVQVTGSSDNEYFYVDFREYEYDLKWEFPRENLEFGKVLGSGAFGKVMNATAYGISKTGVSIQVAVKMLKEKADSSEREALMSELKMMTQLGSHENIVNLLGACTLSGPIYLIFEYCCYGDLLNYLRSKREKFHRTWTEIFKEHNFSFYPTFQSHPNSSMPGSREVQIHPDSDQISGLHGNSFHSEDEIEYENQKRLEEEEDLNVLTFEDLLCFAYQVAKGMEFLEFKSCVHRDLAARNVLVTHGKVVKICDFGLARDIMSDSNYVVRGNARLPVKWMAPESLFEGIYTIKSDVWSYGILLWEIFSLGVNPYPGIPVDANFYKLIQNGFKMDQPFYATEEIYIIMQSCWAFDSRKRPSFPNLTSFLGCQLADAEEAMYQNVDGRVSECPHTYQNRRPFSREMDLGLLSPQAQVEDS
Description: Competition binding assay, FLT3 Kd. Particulars: competition binding. In outline:
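Phage-fused or HEK-293/DNA-tagged kinase + ligand-coated streptavidin beads + compound, 1 h RT with shaking. Wash, elute with free ligand 30 min RT, qPCR of eluted kinase. Kd: 11-point 3-fold series.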

Chain of CSF1R (P07333 20-972): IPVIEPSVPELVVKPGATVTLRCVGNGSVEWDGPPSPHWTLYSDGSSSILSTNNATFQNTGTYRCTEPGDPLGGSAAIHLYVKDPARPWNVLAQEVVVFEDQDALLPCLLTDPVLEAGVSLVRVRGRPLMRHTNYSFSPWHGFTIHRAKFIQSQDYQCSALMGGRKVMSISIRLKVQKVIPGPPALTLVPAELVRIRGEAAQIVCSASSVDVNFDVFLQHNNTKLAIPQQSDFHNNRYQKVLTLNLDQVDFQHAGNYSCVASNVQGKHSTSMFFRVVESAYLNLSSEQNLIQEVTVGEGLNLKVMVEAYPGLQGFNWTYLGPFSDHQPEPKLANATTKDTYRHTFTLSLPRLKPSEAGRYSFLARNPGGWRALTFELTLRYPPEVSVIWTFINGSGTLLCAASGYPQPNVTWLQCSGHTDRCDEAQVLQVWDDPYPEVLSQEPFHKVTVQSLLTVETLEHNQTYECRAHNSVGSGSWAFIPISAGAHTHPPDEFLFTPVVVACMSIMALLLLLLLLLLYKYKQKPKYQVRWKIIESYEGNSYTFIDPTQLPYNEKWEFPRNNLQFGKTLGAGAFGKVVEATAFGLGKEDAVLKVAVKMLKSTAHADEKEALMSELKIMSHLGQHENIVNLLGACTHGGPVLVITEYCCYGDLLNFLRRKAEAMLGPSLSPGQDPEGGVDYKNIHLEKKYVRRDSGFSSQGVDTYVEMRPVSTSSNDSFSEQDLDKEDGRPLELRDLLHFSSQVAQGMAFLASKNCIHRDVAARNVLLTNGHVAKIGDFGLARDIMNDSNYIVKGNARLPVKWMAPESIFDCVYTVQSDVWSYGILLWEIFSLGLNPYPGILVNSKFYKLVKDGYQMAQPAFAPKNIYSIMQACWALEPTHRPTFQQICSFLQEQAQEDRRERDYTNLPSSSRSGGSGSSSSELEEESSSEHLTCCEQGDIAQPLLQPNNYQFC

Take `N#Cc1ccc2c(c1)ncn2Cc1ccc2nc(N[C@@H]3CCCC[C@H]3O)sc2c1` [Example 108, 1-((2-(((1R,2R)-2-hydroxycyclohexyl)amino)benzo[d]thiazol-6-yl)methyl)-1H-benzo[d]imidazole-5-carbonitrile]: the IC50 on CSF1R lay within 50 to 200 nM. For the same molecule, the Kd on FLT3 was > 5000 nM.
The like results for `CC(C)(O)c1cnc2c(c1)ncn2Cc1ccc2nc(N[C@@H]3CCCC[C@H]3O)sc2c1` [Example 109, (1R,2R)-2-((6-((6-(2-hydroxypropan-2-yl)-3H-imidazo[4,5-b]pyridin-3-yl)methyl)benzo[d]thiazol-2-yl)amino)cyclohexanol] were, in that order, 50 to 200 nM and 1000 to 5000 nM.
`CC(=O)c1ccc2c(c1)ncn2Cc1ccc2nc(N[C@@H]3CCCC[C@H]3O)sc2c1` [Example 110, 1-(1-((2-(((1R,2R)-2-hydroxycyclohexyl)amino)benzo[d]thiazol-6-yl)methyl)-1H-benzo[d]imidazol-5-yl)ethanone]: the IC50 at CSF1R was ≤ 50 nM. For the same molecule, the Kd on FLT3 lay within 1000 to 5000 nM.
In the case of `N#Cc1ccc2ncn(Cc3ccc4nc(N[C@@H]5CCCC[C@H]5O)sc4c3)c2c1` [Example 111, 1-((2-(((1R,2R)-2-hydroxycyclohexyl)amino)benzo[d]thiazol-6-yl)methyl)-1H-benzo[d]imidazole-6-carbonitrile], on CSF1R, the 50% inhibitory concentration (IC50) is 50 to 200 nM. On FLT3, the dissociation constant Kd was in the range of 1000 to 5000 nM.
The like results for `CS(=O)(=O)c1ccc2c(c1)ncn2Cc1ccc2nc(N[C@@H]3CCCC[C@H]3O)sc2c1` [Example 112, (1R,2R)-2-((6-((5-(methylsulfonyl)-1H-benzo[d]imidazol-1-yl)methyl)benzo[d]thiazol-2-yl)amino)cyclohexanol] were, in that order, 200 to 500 nM and 1000 to 5000 nM.
For `CS(=O)(=O)c1ccc2ncn(Cc3ccc4nc(N[C@@H]5CCCC[C@H]5O)sc4c3)c2c1` [Example 113, (1R,2R)-2-((6-((6-(methylsulfonyl)-1H-benzo[d]imidazol-1-yl)methyl)benzo[d]thiazol-2-yl)amino)cyclohexanol], in that order: 200 to 500 nM and 1000 to 5000 nM.
For `O[C@@H]1CCCC[C@H]1Nc1nc2ncc(Cn3cnc4cccnc43)cc2s1` [Example 114, (1R,2R)-2-((6-((3H-imidazo[4,5-b]pyridine-3-yl)methyl)thiazolo[4,5-b]pyridine-2-yl)amino)cyclohexanol], in that order: 50 to 200 nM and 1000 to 5000 nM.
In the case of `CC(O)c1cnc2c(c1)ncn2Cc1ccc2nc(N[C@@H]3CCCC[C@H]3O)sc2c1` (stereo partly drawn) [Example 115, (1R,2R)-2-((6-((6-((R,S)-1-hydroxyethyl)-3H-imidazo[4,5-b]pyridin-3-yl)methyl)benzo[d]thiazol-2-yl)amino)cyclohexanol], the IC50 on CSF1R is 50 to 200 nM. The Kd at FLT3 lay in the range of 1000 to 5000 nM.
`N#Cc1ccn2c(Cc3ccc4nc(N[C@@H]5CCCC[C@H]5O)sc4c3)cnc2c1` [Example 117, 3-((2-(((1R,2R)-2-hydroxycyclohexyl)amino)benzo[d]thiazol-6-yl)methyl)imidazo[1,2-a]pyridine-7-carbonitrile]: the IC50 at CSF1R is > 500 nM. Moreover, the Kd on FLT3 was > 5000 nM.
With `O[C@@H]1CCCC[C@H]1Nc1nc2ccc(Cn3cnc4cncnc43)cc2o1` [Example 118, (1R,2R)-2-((6-((9H-purin-9-yl)methyl)benzo[d]oxazol-2-yl)amino)cyclohexanol], the IC50 at CSF1R is > 500 nM. This molecule also came in with a Kd on FLT3 of 1000 to 5000 nM.
As for `Cc1cc2ncn(Cc3ccc4nc(N[C@@H]5CCCC[C@H]5O)sc4c3)c2cc1C` [Example 119, (1R,2R)-2-((6-((5,6-dimethyl-1H-benzo[d]imidazol-1-yl)methyl)benzo[d]thiazol-2-yl)amino)cyclohexanol], the IC50 on CSF1R was 50 to 200 nM. For the same molecule, the Kd at FLT3 was 200 to 1000 nM.
Regarding `CC(=O)c1ccc2ncn(Cc3ccc4nc(N[C@@H]5CCCC[C@H]5O)sc4c3)c2c1` [Example 120, 1-(1-((2-(((1R,2R)-2-hydroxycyclohexyl)amino)benzo[d]thiazol-6-yl)methyl)-1H-benzo[d]imidazol-6-yl)ethanone], the IC50 at CSF1R was in the range of 50 to 200 nM. At FLT3, this molecule had an equilibrium dissociation constant (Kd) of 1000 to 5000 nM.
As for `C#Cc1ccc2c(c1)ncn2Cc1ccc2nc(N[C@@H]3CCCC[C@H]3O)sc2c1` [Example 121, (1R,2R)-2-((6-((5-ethynyl-1H-benzo[d]imidazol-1-yl)methyl)benzo[d]thiazol-2-yl)amino)cyclohexanol], the IC50 at CSF1R was in the range of 50 to 200 nM. Also, the Kd on FLT3 was 1000 to 5000 nM.
`C#Cc1ccc2ncn(Cc3ccc4nc(N[C@@H]5CCCC[C@H]5O)sc4c3)c2c1` [Example 122, (1R,2R)-2-((6-((6-ethynyl-1H-benzo[d]imidazol-1-yl)methyl)benzo[d]thiazol-2-yl)amino)cyclohexanol]: the IC50 on CSF1R lay within 50 to 200 nM. On FLT3, this molecule showed a Kd of 200 to 1000 nM.
As for `COc1nc2c(cc1Br)ncn2Cc1ccc2nc(N[C@@H]3CCCC[C@H]3O)sc2c1` [Example 123, (1R,2R)-2-((6-((6-bromo-5-methoxy-3H-imidazo[4,5-b]pyridin-3-yl)methyl)benzo[d]thiazol-2-yl)amino)cyclohexanol], on CSF1R, the IC50 fell in the range of 50 to 200 nM. For the same molecule, at FLT3, the Kd was 200 to 1000 nM.
On to `N#Cc1cnc2c(c1)ncn2Cc1ccc2nc(N[C@@H]3CCCC[C@H]3O)oc2c1` [Example 124, 3-((2-(((1R,2R)-2-hydroxycyclohexyl)amino)benzo[d]oxazol-6-yl)methyl)-3H-imidazo[4,5-b]pyridine-6-carbonitrile], for which the 50% inhibitory concentration (IC50) on CSF1R was 50 to 200 nM. On FLT3, this molecule gave a Kd of 200 to 1000 nM.
As to `O[C@@H]1CCCC[C@H]1Nc1nc2ccc(Cc3cnc4cnccn34)cc2s1` [Example 125, (1R,2R)-2-((6-(imidazo[1,2-a]pyrazin-3-ylmethyl)benzo[d]thiazol-2-yl)amino)cyclohexanol], at CSF1R, the IC50 was in the range of 50 to 200 nM. On FLT3, this molecule had a dissociation constant (Kd) of 1000 to 5000 nM.
`COc1nc2c(cc1C#N)ncn2Cc1ccc2nc(N[C@@H]3CCCC[C@H]3O)sc2c1` [Example 126, 3-((2-(((1R,2R)-2-hydroxycyclohexyl)amino)benzo[d]thiazol-6-yl)methyl)-5-methoxy-3H-imidazo[4,5-b]pyridine-6-carbonitrile]: on CSF1R, the IC50 was ≤ 50 nM. Further, the Kd on FLT3 is 200 to 1000 nM.
With `Cc1ccc2c(c1)ncn2Cc1ccc2nc(N[C@@H]3CCCC[C@H]3O)sc2c1` [Example 127, (1R,2R)-2-((6-((5-methyl-1H-benzo[d]imidazol-1-yl)methyl)benzo[d]thiazol-2-yl)amino)cyclohexanol], the concentration for half-maximal inhibition (IC50) at CSF1R was in the range of 50 to 200 nM. The Kd at FLT3 was in the range of 1000 to 5000 nM.
For `O[C@@H]1CCCC[C@H]1Nc1nc2ccc(Cn3cnc4cc(F)c(F)cc43)cc2s1` [Example 128, (1R,2R)-2-((6-((5,6-difluoro-1H-benzo[d]imidazol-1-yl)methyl)benzo[d]thiazol-2-yl)amino)cyclohexanol], in that order: 200 to 500 nM and > 5000 nM.
As for `O[C@@H]1CCCC[C@H]1Nc1nc2ccc(Cn3cnc4cc(F)ccc43)cc2s1` [Example 129, (1R,2R)-2-((6-((5-fluoro-1H-benzo[d]imidazol-1-yl)methyl)benzo[d]thiazol-2-yl)amino)cyclohexanol], the IC50 on CSF1R was ≤ 50 nM. The Kd at FLT3 lay within 1000 to 5000 nM.
Take `O[C@@H]1CCCC[C@H]1Nc1nc2ccc(Cn3cnc4cc(C(F)(F)F)ccc43)cc2s1` [Example 130, (1R,2R)-2-((6-((5-(trifluoromethyl)-1H-benzo[d]imidazol-1-yl)methyl)benzo[d]thiazol-2-yl)amino)cyclohexanol]: the IC50 at CSF1R lay in the range of 200 to 500 nM. This molecule showed a Kd on FLT3 of 1000 to 5000 nM.
On to `O[C@@H]1CCCC[C@H]1Nc1nc2ccc(Cc3cnc4cccnn34)cc2s1` [Example 131, (1R,2R)-2-((6-(imidazo[1,2-b]pyridazin-3-ylmethyl)benzo[d]thiazol-2-yl)amino)cyclohexanol], for which, on CSF1R, the half-maximal inhibitory concentration (IC50) was ≤ 50 nM. In addition, the Kd at FLT3 is ≤ 200 nM.
With `O[C@@H]1CCCC[C@H]1Nc1nc2ccc(Cn3cnc4cc(F)cnc43)cc2o1` [Example 132, (1R,2R)-2-((6-((6-fluoro-3H-imidazo[4,5-b]pyridin-3-yl)methyl)benzo[d]oxazol-2-yl)amino)cyclohexanol], at CSF1R, the IC50 is 50 to 200 nM. The Kd on FLT3 is ≤ 200 nM.
